Two molecules from patent US5049372A, “Anticancer activities in a host by increasing blood and plasma adenosine 5'-triphosphate (ATP) levels” (priority 1988, dated 1991) can be followed below.

In series [1] the test system is CT26 colon adenocarcinoma. Briefly: Growth inhibition of footpad CT26 colon adenocarcinoma in CB6F1 mice, second series (FIGS. 2 and 3). The series is classed as in vivo, mouse. The settings on record: for Inhibition of tumor growth, schedule ending before inoculation: 12 consecutive days, ending one day before tumor inoculation; for Anticancer activities against established footpad CT26 colon adenocarcinoma: CB6F1 mice, in words; for Deaths before stated day after tumor inoculation: FIG. 2 experiment, palpable CT26 tumors, 10 animals per group; for Inhibition of growth of palpable CT26 tumors (in words): daily i.p. in 2.2 ml saline, pH 6.2, 12 days, starting after tumors palpable, equimolar amounts. How it is done: A further series of tests are conducted whereby tumors are inoculated by injections of 2.5×10^5 CT26 cells (over 90% viability) in 50 μl of phosphate-buffered saline into the right hind footpad of CB6F1 mice. The treatments were initiated at a variety of times after inoculation of the tumors. The injection schedules started either 1 or 5 days after tumor inoculation when none of the tumors are palpable or when the tumors are clearly palpable (average calculated weight of 100 mg), which occur in 100% of the inoculated mice after 8-11 days. Mice are randomized, divided into groups, and injected daily with 2.2 ml of saline, adenosine, AMP, or ATP (compounds are in sterile saline solutions at concentrations of 25 mM with AMP and ATP solutions adjusted to pH 6.2). Injections are administered intraperitoneally with 30 gauge needles and the mice are lightly anesthetized with […]. The mice are weighed and tumor sizes measured before the start of the treatment schedule and every three days during and after the treatment schedule. These determinations are performed before injections during the treatment period.
In particular, see FIG. 2. FIG. 2 illustrates inhibition of tumor growth (---) and host weight loss (-) in tumor-bearing mice by treatment with adenine nucleotides. Mice (CB6F1, 8 week old males) bearing palpable CT26 footpad tumors (on day 9 after tumor inoculation) are treated with saline (.smallcircle.), adenosine (o), AMP (Δ), or ATP (.quadrature.) as described herein. An untreated group is also included (x). Arrows indicate days of injection.
The magnitude of the antitumor activities of AMP and ATP depends to a small extent on the pH of the solution administered intraperitoneally. This property is probably related to the number of negative charges on the phosphate groups (the pKa of the secondary phosphate is around 6.6). AMP and especially ATP have some buffering capacity, and at a pH below 6.6 they carry a smaller net charge than at a physiological pH. The lower charge of these molecules enhances the initial (first hour) transport of AMP and ATP across the peritoneal membrane and into the systemic circulation (see Torres, et al., 1978, Pharmacol., 17, 330-340). […] The treatment schedule of palpable CT26 tumors which is illustrated in FIG. 2 consistently yields 10-20% of "cures". These mice remain tumor-free for at least two months.
FIG. 3 further illustrates inhibition of host weight loss in tumor-bearing animals by treatment with adenine nucleotides. Mice (CB6F1, males, 7 weeks old, in A, 10 weeks old in B, […]) with saline (.smallcircle.), adenosine (o), AMP (Δ), or ATP (.quadrature.) are initiated 1 day (A), 5 days (B), or 9 days after tumor inoculation (when all the tumors were palpable) (C). Arrows indicate days of injection. Experimental procedures were outlined in the text.

Another series relates to RBC ATP pools. Put plainly: Expansion of RBC ATP pools and blood plasma ATP levels after i.p. injection (Table 4). In kind it is in vivo, mouse. The settings on record: for Plasma ATP levels / RBC ATP pools / Plasma [^3 ]ATP levels immediately after [^3 H]adenosine incorporation into whole blood: 5 hours after i.p. injection of 2 ml of 35 mM, CB6F1; for Plasma ATP levels / RBC ATP pools: bioluminometry, citrate-dextrose; for Plasma [^3 ]ATP levels immediately after [^3 H]adenosine incorporation into whole blood: radioactivity corrected by RBC specific radioactivity; for Duration of expansion of RBC ATP pools: after complete adsorption across the peritoneal membrane; for Time at which expansion of RBC ATP pools could be detected: after i.p. injection; for Increase in plasma (extracellular) ATP levels (in words): i.p. administration; for Expansion of RBC ATP pools (in words): i.p. injection, host animals. Here is the method:
The mice are anesthetized with ether during the procedure. Plasma or Hanks' (Balanced Salt Solution) BSS media from incubated isolated RBCs (Red Blood Cells) are prepared by centrifugation of whole blood or RBCs in a Beckman microfuge (30 seconds at 8000 xg) and samples of 100 μl are added to 1 ml of ice-cold 7% trichloroacetic acid. Red blood cells are prepared by centrifugation of whole blood (1500 xg for 5 minutes at 4° C.) and removal of plasma and the buffy coat is followed by a wash of the pelleted RBCs (from 250 μl of whole blood) in 5 ml of ice-cold Hanks' BSS. After centrifugations, the RBCs pellet is resuspended in Hanks' BSS to yield a total volume with the original hematocrit (percent of RBCs volume in the whole blood). Aliquots of 20 μl of RBCs suspensions or whole blood are added to 1 ml of ice-cold 7% trichloroacetic acid. Extraction of acid-soluble nucleotides and determinations of ATP levels by luminometry followed procedures discussed hereinabove. Levels of [^3 H]ATP in whole blood, RBCs, plasma, or RBCs incubation media (Hanks' BSS) are determined after incorporation of 250 μCi of [^3 H]adenosine of specific radioactivity of 30 Ci/mmol (1 Ci=3.7×10^10 becquerels) into whole blood or RBC suspensions (250 μl total) followed by immediate trichloroacetic acid extractions as described above. Two dimensional thin layer chromatography on poly(ethylene)imine cellulose with an unlabeled ATP carrier is performed according to Bochner and Ames, J. Biol. Chem., 257, pp. 9759-9769, 1982). For the determination of whole blood or isolated RBC [^3 H]ATP pools, 10 μl of a 1 ml initial trichloroacetic acid extract are chromatographed. Determinations of [^3 H]ATP levels in blood plasma or RBCs incubation media are performed on 300 μl of an initial 1 ml trichloroacetic acid extract which are lyophilized and redissolved in 15 μl of water. After chromatography, the spots corresponding to the ATP carrier are cut, eluted with 0.5 ml of 4 N ammonium hydroxide, and radioactivity determined in 10 ml of scintillation fluid.
Single intraperitoneal injections of 2 ml of 35 mM of AMP or ATP in saline at pH 6.2 into CB6F1 mice result in expansions of RBC ATP pools in these mice (see Table 4).
The expansions of RBC ATP pools after i.p. injections of AMP or ATP could be detected 30 minutes after injections and lasted for approximately 6-8 hours after the nucleotides were completely adsorbed across the peritoneal membrane and into the systemic circulation. The rates of adsorption of intraperitoneal AMP or ATP solutions varied in different strains of mice. […] These plasma ATP levels originate in RBCs since they can be metabolically labeled by [^3 H]adenosine. Plasma ATP pools which originate in the dense granules of blood platelets would not be radioactively labeled under the same conditions (e.g., Holmsen, 1985, Seminars in Hematol, 22, 219-240). The experiments described in Tables 4 and 5 include uptake of [^3 H]adenosine by whole blood (Table 4) or isolated washed RBCs (Table 5 below). In both cases, all the extracellular ATP, determined seconds after the uptake of [^3 H]adenosine, is metabolically labeled.

A short description of series [2]: Rate of extracellular ATP degradation by human blood in vitro (Table 6). The settings on record: 1 mM, 37° C. The series is classed as in vitro ADME. How it is done:
*Blood (450 μl) was withdrawn into a syringe containing either 50 μ
of citratedextrose or 50 μl of heparin (100 U/ml). Whole blood was the
added to 1 mM of [^3 H]ATP in saline (25 μl) and at various time
points blood aliquots (90 μl) were removed and centrifuged. Plasma (20
μl) was withdrawn and added to 1 ml of icecold trichloroacetic acid.
Thin layer chromatography on poly(ethylene)imine cellulose was performed
according to published procedures. The rate of degradation of 1 mM of
[^3 H]ATP was linear for mouse or human blood during the initial 30
minute incubation at 37° C.

Molecules are shown by their SMILES. Entries after “also recorded” stand apart in the source; their conditions may differ.

As for `Nc1ncnc2c1ncn2[C@@H]1O[C@H](COP(=O)(O)O)[C@@H](O)[C@H]1O` [AMP, adenosine 5'-monophosphate], in series [1], the “Inhibition of tumor growth, schedule ending before inoculation” value is recorded as “No inhibition of tumor growth”; the “Anticancer activities against established footpad CT26 colon adenocarcinoma” value was “exhibit significant anticancer activities”; the “Deaths before stated day after tumor inoculation” value is reported as “No deaths occurred before day 22”; the “Inhibition of growth of palpable CT26 tumors (in words)” value is reported as “significantly inhibit the growth of this fast-growing tumor”. Besides, in series [1] (treatment initiated one day after tumor inoculation), the “Inhibition of tumor growth relative to ATP” value is reported as “as effective as ATP in inhibiting tumor growth”. In the series with RBC ATP pools, the “Plasma ATP levels” value was found to be 3.10 ± 0.96 µM, the “RBC ATP pools” value is listed as 1.78 ± 0.32 mM, the “Plasma [^3 ]ATP levels immediately after [^3 H]adenosine incorporation into whole blood” value was 2.86 ± 1.06 µM and the “Duration of expansion of RBC ATP pools” value lay in the range of 6 to 8 h. Moreover, in the series with RBC ATP pools, the “Time at which expansion of RBC ATP pools could be detected” value came out at 30 min, the “Increase in plasma (extracellular) ATP levels (in words)” value is “markedly increased; also recorded: several fold increases in plasma (extracellular) ATP levels” and the “Expansion of RBC ATP pools (in words)” value is listed as “yielded expansions of red blood cell (RBC) ATP pools”.
In the case of `Nc1ncnc2c1ncn2[C@@H]1O[C@H](COP(=O)(O)OP(=O)(O)OP(=O)(O)O)[C@@H](O)[C@H]1O` [ATP, adenosine 5'-triphosphate], in series [1], the “Inhibition of tumor growth, schedule ending before inoculation” value was “No inhibition of tumor growth”; the “Anticancer activities against established footpad CT26 colon adenocarcinoma” value is “exhibit significant anticancer activities”; the “Deaths before stated day after tumor inoculation” value is recorded as “No deaths occurred before day 22”; the “Inhibition of growth of palpable CT26 tumors (in words)” value is given as “significantly inhibit the growth of this fast-growing tumor”. For the same molecule, the “Inhibition of tumor growth, palpable tumors, relative to AMP” value in series [1] (applied to palpable tumors (FIG. 2)) is recorded as “more pronounced than that obtained with AMP”. Further, in the series on RBC ATP pools, the “Plasma ATP levels” value was 4.94 ± 1.17 µM, the “RBC ATP pools” value is on record as 2.49 ± 0.42 mM, the “Plasma [^3 ]ATP levels immediately after [^3 H]adenosine incorporation into whole blood” value was 5.75 ± 2.05 µM and the “Duration of expansion of RBC ATP pools” value lay in the range of 6 to 8 h. For the same molecule, in the series with RBC ATP pools, the “Time at which expansion of RBC ATP pools could be detected” value was found to be 30 min, the “Increase in plasma (extracellular) ATP levels (in words)” value is given as “markedly increased; also recorded: several fold increases in plasma (extracellular) ATP levels” and the “Expansion of RBC ATP pools (in words)” value was “yielded expansions of red blood cell (RBC) ATP pools”. Moreover, the “Rate of extracellular ATP degradation” value in series [2] (citrate) turned out to be 1.75 pmol/µL/min. For the same molecule, in series [2] (heparin), the “Rate of extracellular ATP degradation” value is 4.07 pmol/µL/min.
